From ChEMBL document CHEMBL1909046, “DrugMatrix in vitro pharmacology data”

Assays:
[1] = target: Aldo-keto reductase family 1 member B1 (Rattus norvegicus, UniProt P07943); format: tissue-based, Lens of camera-type eye;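 note: inhibition of aldose reductase enzyme activity, measured with DL-glyceraldehyde as the substrate; in other assays of this panel Not Active means under 50% inhibition at 10 µM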
[2] = DRUGMATRIX: ATPase, Na+/K+ enzyme inhibition (substrate: ATP); format: tissue-based, Sus scrofa, Heart; settings: Not Active = under 50% inhibition at 10 µM
Substance-K receptor = target: T1, Substance-K receptor (Homo sapiens, UniProt P21452); format: cell membranes, CHO, Membrane; settings: cho; note: in other assays of this panel Not Active means under 50% inhibition at 10 µM
T1 sequence (P21452 whole entry): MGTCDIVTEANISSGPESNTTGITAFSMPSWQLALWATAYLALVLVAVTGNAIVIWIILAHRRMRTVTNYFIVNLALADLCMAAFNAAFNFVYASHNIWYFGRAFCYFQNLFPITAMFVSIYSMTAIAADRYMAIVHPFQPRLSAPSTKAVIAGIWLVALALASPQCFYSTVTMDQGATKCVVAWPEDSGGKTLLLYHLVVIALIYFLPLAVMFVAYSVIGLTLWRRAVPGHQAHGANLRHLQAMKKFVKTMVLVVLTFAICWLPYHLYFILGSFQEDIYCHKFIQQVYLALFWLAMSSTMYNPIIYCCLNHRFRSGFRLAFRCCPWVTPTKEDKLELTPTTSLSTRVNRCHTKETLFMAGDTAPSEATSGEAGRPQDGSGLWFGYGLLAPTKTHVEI

[3] = DRUGMATRIX: Tumor Necrosis Factor (TNF), Non-Selective radioligand binding (ligand: [125I] TNF-alpha); format: cell membranes, Membrane; settings: u-937; Not Active = under 50% inhibition at 10 µM
[4] = target: T2, Vasoactive intestinal polypeptide receptor 1 (Homo sapiens, UniProt P32241); format: cell membranes, Membrane; settings: ht-29; note: in other assays of this panel Not Active means under 50% inhibition at 10 µM
T2 sequence (P32241 whole entry): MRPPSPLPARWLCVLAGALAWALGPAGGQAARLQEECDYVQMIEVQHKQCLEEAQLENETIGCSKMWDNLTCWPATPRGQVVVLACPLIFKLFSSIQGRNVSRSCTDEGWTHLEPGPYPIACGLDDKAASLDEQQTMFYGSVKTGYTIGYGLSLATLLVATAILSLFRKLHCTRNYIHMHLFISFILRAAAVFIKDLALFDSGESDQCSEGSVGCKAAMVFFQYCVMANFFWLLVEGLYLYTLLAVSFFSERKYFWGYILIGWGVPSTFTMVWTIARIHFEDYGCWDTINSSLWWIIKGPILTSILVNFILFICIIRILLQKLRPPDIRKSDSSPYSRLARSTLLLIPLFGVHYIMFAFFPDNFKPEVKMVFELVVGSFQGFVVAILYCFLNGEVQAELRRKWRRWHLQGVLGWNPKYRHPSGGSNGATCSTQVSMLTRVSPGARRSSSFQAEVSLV

Cannabinoid receptor 1 = Cannabinoid receptor 1 (Homo sapiens, UniProt P21554); format: cell membranes, Membrane; settings: chem-1; note: in other assays of this panel Not Active means under 50% inhibition at 10 µM
Chain of Cannabinoid receptor 1 (P21554 whole entry): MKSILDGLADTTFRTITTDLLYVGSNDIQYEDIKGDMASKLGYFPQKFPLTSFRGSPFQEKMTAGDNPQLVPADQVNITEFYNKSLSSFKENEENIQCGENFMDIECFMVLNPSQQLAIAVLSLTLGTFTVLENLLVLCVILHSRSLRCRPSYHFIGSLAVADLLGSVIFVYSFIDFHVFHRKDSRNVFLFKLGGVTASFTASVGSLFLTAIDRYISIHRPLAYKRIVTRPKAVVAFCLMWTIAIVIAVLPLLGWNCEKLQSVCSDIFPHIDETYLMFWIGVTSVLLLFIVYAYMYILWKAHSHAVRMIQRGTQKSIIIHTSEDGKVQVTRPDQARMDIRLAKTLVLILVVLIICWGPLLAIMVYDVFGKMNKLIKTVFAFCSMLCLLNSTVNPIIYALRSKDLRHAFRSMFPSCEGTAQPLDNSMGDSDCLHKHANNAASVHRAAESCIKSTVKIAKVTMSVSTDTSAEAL

[5] = DRUGMATRIX: GABAA, Muscimol, Central radioligand binding (ligand: [3H] Muscimol); format: cell membranes, Rattus norvegicus, Wistar, Brain, Membrane; settings: Not Active = under 50% inhibition at 10 µM
[6] = DRUGMATRIX: Glutamate, Kainate radioligand binding (ligand: [3H] Kainic acid); format: cell membranes, Rattus norvegicus, Wistar, Brain, Membrane; settings: Not Active = under 50% inhibition at 10 µM
Melanocortin receptor 4 = Melanocortin receptor 4 (Homo sapiens, UniProt P32245); format: cell membranes, Membrane; settings: hek293; note: in other assays of this panel Not Active means under 50% inhibition at 10 µM
Chain of Melanocortin receptor 4 (P32245 whole entry): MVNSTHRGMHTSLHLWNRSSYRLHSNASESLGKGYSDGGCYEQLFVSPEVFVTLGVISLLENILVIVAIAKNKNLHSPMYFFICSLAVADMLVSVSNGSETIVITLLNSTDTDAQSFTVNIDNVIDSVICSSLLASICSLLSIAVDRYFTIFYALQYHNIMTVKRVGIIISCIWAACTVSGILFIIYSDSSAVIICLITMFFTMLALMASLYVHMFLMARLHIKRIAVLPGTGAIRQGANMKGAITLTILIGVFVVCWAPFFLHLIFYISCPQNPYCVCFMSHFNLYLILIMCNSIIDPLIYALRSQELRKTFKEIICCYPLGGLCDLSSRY

Melanocortin receptor 5 = Melanocortin receptor 5 (Homo sapiens, UniProt P33032); format: cell membranes, HEK293, Membrane; settings: hek293; note: in other assays of this panel Not Active means under 50% inhibition at 10 µM
Chain of Melanocortin receptor 5 (P33032 whole entry): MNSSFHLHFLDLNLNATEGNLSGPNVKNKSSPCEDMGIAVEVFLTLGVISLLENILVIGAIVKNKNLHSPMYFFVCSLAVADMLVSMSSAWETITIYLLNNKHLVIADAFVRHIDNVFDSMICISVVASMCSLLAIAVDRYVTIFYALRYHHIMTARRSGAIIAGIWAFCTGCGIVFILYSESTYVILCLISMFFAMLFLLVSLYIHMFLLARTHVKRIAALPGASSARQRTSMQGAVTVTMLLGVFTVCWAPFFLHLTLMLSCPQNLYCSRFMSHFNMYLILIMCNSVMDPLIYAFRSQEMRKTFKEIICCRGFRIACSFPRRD

[7] = target: T3, Muscarinic acetylcholine receptor M2 (Homo sapiens, UniProt P08172); format: cell membranes, CHO-K1, Membrane; settings: cho-k1; note: in other assays of this panel Not Active means under 50% inhibition at 10 µM
T3 sequence (P08172 whole entry): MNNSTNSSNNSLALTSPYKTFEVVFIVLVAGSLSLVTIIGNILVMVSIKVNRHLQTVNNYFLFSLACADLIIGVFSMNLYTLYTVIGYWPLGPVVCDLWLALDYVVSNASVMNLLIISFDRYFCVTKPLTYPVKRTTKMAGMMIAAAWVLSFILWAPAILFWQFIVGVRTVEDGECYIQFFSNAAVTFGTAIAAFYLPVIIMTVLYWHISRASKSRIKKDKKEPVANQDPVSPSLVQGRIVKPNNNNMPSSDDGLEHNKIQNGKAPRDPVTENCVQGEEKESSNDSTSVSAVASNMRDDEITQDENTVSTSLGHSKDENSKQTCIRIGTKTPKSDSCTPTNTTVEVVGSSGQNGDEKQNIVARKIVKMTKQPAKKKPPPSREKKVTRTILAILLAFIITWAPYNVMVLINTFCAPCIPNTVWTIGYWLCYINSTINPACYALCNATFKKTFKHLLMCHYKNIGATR

[8] = target: T4, Neuropeptide Y receptor type 2 (Homo sapiens, UniProt P49146); format: cell membranes, Membrane; settings: kan-ts; note: in other assays of this panel Not Active means under 50% inhibition at 10 µM
T4 sequence (P49146 whole entry): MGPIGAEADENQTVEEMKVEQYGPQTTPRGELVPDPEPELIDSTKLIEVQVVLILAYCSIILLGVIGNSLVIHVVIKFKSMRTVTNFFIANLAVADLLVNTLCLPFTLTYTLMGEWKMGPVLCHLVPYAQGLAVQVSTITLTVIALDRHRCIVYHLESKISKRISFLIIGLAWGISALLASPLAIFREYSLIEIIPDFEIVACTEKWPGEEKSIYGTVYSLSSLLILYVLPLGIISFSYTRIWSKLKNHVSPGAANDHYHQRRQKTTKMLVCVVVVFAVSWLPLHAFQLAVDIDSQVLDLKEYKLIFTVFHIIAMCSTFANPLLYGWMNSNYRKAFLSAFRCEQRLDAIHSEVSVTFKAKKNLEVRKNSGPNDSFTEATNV

[9] = DRUGMATRIX: Phorbol Ester radioligand binding (ligand: [3H] PDBu); format: cell membranes, Mus musculus, ICR, Brain, Membrane; settings: Not Active = under 50% inhibition at 10 µM
[10] = DRUGMATRIX: Potassium Channel [KATP] radioligand binding (ligand: [3H] Glyburide); format: cell membranes, Membrane; settings: hit-t15; Not Active = under 50% inhibition at 10 µM
[11] = target: Protein kinase C alpha type (Homo sapiens, UniProt P17252); format: cell-based; settings: sf9
[12] = target: Protein phosphatase 3 catalytic subunit alpha (Homo sapiens, UniProt Q08209); set-up: species or system Escherichia coli
[13] = target: 5-hydroxytryptamine receptor 1B (Rattus norvegicus, UniProt P28564); format: cell membranes, Wistar, Cerebral cortex, Membrane; note: in other assays of this panel Not Active means under 50% inhibition at 10 µM
Chain of 5-hydroxytryptamine receptor 1B (P28564 whole entry): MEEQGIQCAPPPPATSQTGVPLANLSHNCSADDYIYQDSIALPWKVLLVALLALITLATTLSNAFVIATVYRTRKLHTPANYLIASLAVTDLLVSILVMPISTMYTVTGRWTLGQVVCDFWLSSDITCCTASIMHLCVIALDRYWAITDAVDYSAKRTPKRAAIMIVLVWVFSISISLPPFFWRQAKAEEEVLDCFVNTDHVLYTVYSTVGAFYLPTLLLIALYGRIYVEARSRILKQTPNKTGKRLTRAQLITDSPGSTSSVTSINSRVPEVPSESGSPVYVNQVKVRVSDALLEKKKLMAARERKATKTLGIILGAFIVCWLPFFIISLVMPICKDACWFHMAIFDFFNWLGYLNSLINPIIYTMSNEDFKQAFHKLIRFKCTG

Oc1c(I)cc(I)c2cccnc12 [IODOQUINOL]
Not Active: IC50 [1] | IC50 [2] | Ki [2] | IC50 (Substance-K receptor) | IC50 [3] | Ki [3] | IC50 [4] | IC50 (Cannabinoid receptor 1) | IC50 [5] | Ki [5] | IC50 [6] | Ki [6] | IC50 (Melanocortin receptor 4) | IC50 (Melanocortin receptor 5) | IC50 [7] | IC50 [8] | IC50 [9] | Ki [9] | IC50 [10] | Ki [10] | IC50 [11] | IC50 [12] | IC50 [13]

NNC(=O)c1ccncc1 [ISONIAZID]
Not Active: IC50 [1] | IC50 [2] | Ki [2] | IC50 (Substance-K receptor) | IC50 [3] | Ki [3] | IC50 [4] | IC50 (Cannabinoid receptor 1) | IC50 [5] | Ki [5] | IC50 [6] | Ki [6] | IC50 (Melanocortin receptor 4) | IC50 (Melanocortin receptor 5) | IC50 [7] | IC50 [8] | IC50 [9] | Ki [9] | IC50 [10] | Ki [10] | IC50 [11] | IC50 [12] | IC50 [13]

CC1=C(/C=C/C(C)=C/C=C/C(C)=C\C(=O)O)C(C)(C)CCC1 [ISOTRETINOIN]
Not Active: IC50 [1] | IC50 [2] | Ki [2] | IC50 (Substance-K receptor) | IC50 [3] | Ki [3] | IC50 [4] | IC50 (Cannabinoid receptor 1) | IC50 [5] | Ki [5] | IC50 [6] | Ki [6] | IC50 (Melanocortin receptor 4) | IC50 (Melanocortin receptor 5) | IC50 [7] | IC50 [8] | IC50 [9] | Ki [9] | IC50 [10] | Ki [10] | IC50 [11] | IC50 [12] | IC50 [13]

CO[C@@H]1[C@@H](O[C@@H]2O[C@H](C)[C@@H](O[C@H]3C[C@@](C)(O)[C@@H](OC(=O)CC(C)C)[C@H](C)O3)[C@H](N(C)C)[C@H]2O)[C@@H](CC=O)C[C@@H](C)[C@@H](O)/C=C/C=C/C[C@@H](C)OC(=O)C[C@H]1O [KITASAMYCIN]
Not Active: IC50 [1] | IC50 [2] | Ki [2] | IC50 (Substance-K receptor) | IC50 [3] | Ki [3] | IC50 [4] | IC50 (Cannabinoid receptor 1) | IC50 [5] | Ki [5] | IC50 [6] | Ki [6] | IC50 (Melanocortin receptor 4) | IC50 (Melanocortin receptor 5) | IC50 [7] | IC50 [8] | IC50 [9] | Ki [9] | IC50 [10] | Ki [10] | IC50 [11] | IC50 [12] | IC50 [13]

CC(CCc1ccccc1)NCC(O)c1ccc(O)c(C(N)=O)c1 (stereo not given) [LABETALOL]
Not Active: IC50 [1] | IC50 [2] | Ki [2] | IC50 (Substance-K receptor) | IC50 [3] | Ki [3] | IC50 [4] | IC50 (Cannabinoid receptor 1) | IC50 [5] | Ki [5] | IC50 [6] | Ki [6] | IC50 (Melanocortin receptor 4) | IC50 (Melanocortin receptor 5) | IC50 [7] | IC50 [8] | IC50 [9] | Ki [9] | IC50 [10] | Ki [10] | IC50 [11] | IC50 [12] | IC50 [13]
